Measured values published in PubChem BioAssay AID179 (DTP/NCI, 2004).
pEC50, pIC50: −log10 of the molar value. “And” between values parts separate entries of the source, which are not always exact repeats. Equal entries are not always repeated. The source made the active and inactive calls.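 Rule for the calls: active = compounds giving half or more protection of infected cells from virus-caused growth loss, again on retest; inactive = the rest.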 Where a SMILES comes first, the peptide text is derived from it. The star is where a group is joined. Boc = CC(C)(C)OC(=O)*; OBn = c1ccc(CO*)cc1

System: CEM cells HIV-1 protection, formazan growth assay
Experiment: NCI AIDS Antiviral Assay
Details: for pIC50: measured here: growth of uninfected CEM cells
In short: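 Protection of CEM cells against HIV-1 was scored from cell growth (soluble formazan) across five concentrations, with parallel uninfected cells. Lack of protection may reflect toxicity.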

Compound	pEC50	pIC50	outcome
Cc1c(CNc2ccc(Cl)c(Cl)c2Cl)cnc2nc(N)nc(N)c12	< 5.70	6.46	
O=C(N/C=C(/c1ccccc1)S(=O)Cc1ccccc1)Nc1ccccc1Cl (stereo not drawn)	< 3.30	4.76	
Nc1nc(Cl)cc(OCC2(CO)CC=CC2)n1	< 3.70	3.90	
CSc1nc2[nH]ccc2c(=O)[nH]1			inactive
CC1(C)C(=O)NC(=O)c2ccccc21	< 3.70	< 3.70	
CN(C)C(c1ccccc1)C(O)c1ccccc1 (stereo not drawn)			inactive
O=c1c(SSc2coc3ccccc3c2=O)coc2ccccc12	< 3.70	5.29	
CCOC(=O)C1=C(Nc2ccc(Cl)c(Cl)c2)OC/C1=N\NS(=O)(=O)c1ccc(C)cc1	< 4.13	4.19	
Cc1cn([C@H]2C[C@@H]3[C@@H](COC(C(Cl)Cl)N3O)O2)c(=O)[nH]c1=O (stereo partly drawn)	< 3.70	< 3.70	
C/C=C(\CC)C(C#N)O[Si](C)(C)C (stereo not drawn)			inactive
N#Cc1ncn(Cc2ccccc2)c1N	< 3.70	< 3.70	
O=C(O)c1ccccc1C1c2ccc(Cl)cc2Oc2cc(Cl)ccc21	< 5.00	< 5.00	
O=C(N/N=C\c1ccc([N+](=O)[O-])o1)c1ccncc1	< 3.70	4.64	
O=C1CC(c2cccc(Cl)c2)n2cccc21 (stereo not drawn)	< 3.70	4.03	
CCOc1ccccc1NC(=O)/C=C1\NC(=O)CS1	< 3.80	3.89	
O=C1/C(=C\c2ccc(Cl)cc2)SC2SC=C(c3ccc([N+](=O)[O-])cc3)N12 (stereo not drawn)	< 3.70	4.58	
O=S(=O)(O)CCC(O)S(=O)(=O)O (stereo not drawn)	< 3.70	3.92	
O=C1c2c(c3c4ccccc4n(CC4CO4)c3c3[nH]c4ccccc4c23)C(=O)N1Cc1ccccc1 (stereo not drawn)			inactive
CC(C)(C)N/N=C(/Cc1nc2c3c(ccc2[nH]c1=O)C(=O)c1ccccc1C3=O)C(=O)NC1=C(Cl)C(=O)c2ccccc2C1=O	< 4.94	< 4.94	
CN1C(=O)C(=O)N2c3ccc(Cl)cc3C3(c4ccccc4)N=CC12O3 (stereo not drawn)	< 4.44	5.26	
O=c1oc2ccccc2[n+]([O-])c1-c1ccccc1	< 2.98	< 2.98	
CCC12C=CCN3CCC4(c5cc(C(c6ccccn6)c6cc7ccccc7n6C)c(OC)cc5N(C)C4C(O)(C(=O)OC)C1OC(C)=O)C32 (stereo not drawn)	< 4.97	< 4.97	

Compound	pEC50	pIC50	outcome
O=P(c1ccccc1)(c1ccccc1)C1CC=C2CCCCCC2C1 (stereo not drawn)	< 5.27	< 5.27	
CC1=C(C(N)=O)C(c2ccncc2)C(C#N)C(=O)N1 (stereo not drawn)	< 3.70	3.84	
CCCCC(CC)CN=Cc1c(O)c(O)c(C(C)C)c2cc(C)c(-c3c(C)cc4c(C(C)C)c(O)c(O)c(C=NCC(CC)CCCC)c4c3O)c(O)c12 (stereo not drawn)	< 3.70	3.84	
CN(C)c1nc(=NCc2cccs2)ss1	< 3.70	4.76	
CN(C)c1ccc(/C=C/C(=O)C(C)(C)C)cc1Br	< 4.49	4.67	
Nc1ccc(N=Nc2ccc(N=Nc3c(S(=O)(=O)O)cc4cc(S(=O)(=O)O)c(N=Nc5ccc(N=Nc6ccc(N)cc6N)cc5)c(O)c4c3N)cc2)c(N)c1	4.94	4.30	
O=S(=O)(O)c1ccc(Nc2ccnc3ccccc23)cc1	< 3.70	< 3.70	
COc1ccc2c(c1)OC(=O)CC2c1ccc(OC)c(OC)c1 (stereo not drawn)	< 3.70	< 3.70	
O=C1CC2(CCNCC2)C(=O)N1N1CCOCC1	< 3.70	< 3.70	
O=C(c1ccccc1)C(SSC(C(=O)c1ccccc1)C(=O)c1ccccc1)C(=O)c1ccccc1	< 3.70	4.76	
CCCCCOCCCCCCCC(=O)OCC1OC(n2cc(C)c(=O)[nH]c2=O)CC1N=[N+]=[N-] (stereo not drawn)			active
O=c1c2c([nH]c3c1ccc1[nH]c4c(c(=O)c13)CCCC4)CCCC2	< 4.37	< 4.37	
c1ccc2c(CCNC3=NCCO3)cccc2c1			inactive
c1ccc(C[P+](c2ccccc2)(c2ccccc2)c2ccc3ccccc3c2-c2c([P+](Cc3ccccc3)(c3ccccc3)c3ccccc3)ccc3ccccc23)cc1	< 3.59	6.41 and 5.60	
CC1(C)O[C@H](C(=O)O)[C@@H](C(=O)O)O1	< 3.70	< 3.70	
O=[N+]([O-])c1cc2c(c3nonc13)OCCCCO2	< 3.70	5.94	
COc1ccc(C2CC(c3c(C)nn(-c4ccccc4)c3-c3ccc(C)cc3O)=NN2c2ccccc2)cc1 (stereo not drawn)	< 3.70	4.89	
NC(N)=NCCCC(N=c1c2ccccc2n(O)c2ccccc12)C(=O)O (stereo not drawn)			inactive
CN(C)C(=O)Nc1c([N+](=O)[O-])cc(C(F)(F)F)cc1[N+](=O)[O-]			inactive
CC(=O)OC1=C(CC2CCCC2=O)C(=O)CC1 (stereo not drawn)			inactive
NC(N)=NCCCC(NC(=O)OCCCCn1ccc(N)nc1=O)C(=O)O (stereo not drawn)	< 3.70	< 3.70	
COC(=O)C1C2c3ccccc3-c3ccccc3C2(OC(C)=O)[C@@]1(Cl)C(=O)OC (stereo partly drawn)	< 4.36	5.18	

Compound	pEC50	pIC50	outcome
Cc1ccc(S(=O)(=O)N2CCC[C@@H]2C(=O)O[C@@H]2CCC3CC=CC32)cc1 (stereo partly drawn)	< 3.70	4.90	
COC(c1ccsc1)C(C#N)(C#N)N=Cc1ccsc1 (stereo not drawn)	< 3.70	4.79	
[N-]=[N+]=Nc1c(-c2ccccc2)c(Cl)nc2ccccc12	< 3.70	4.69	
CCOC(=O)Nc1cc(NC(C)/C(=N/O)c2ccccc2)c([N+](=O)[O-])c(N)n1 (stereo not drawn)			inactive
CN(C(=O)C12C3C4C1(C(=O)O)C1C2C3(C(=O)O)C41C(=O)N(C)C(C)(C)C)C(C)(C)C (stereo not drawn)	< 4.76	< 4.76	
COC(=O)CC1(C)CCC2(OC(CC(C)=O)C3C(C)(C)CCC[C@@]32C)O1 (stereo partly drawn)	< 3.70	3.85	
Cc1ccccc1C1N=C2Oc3ccccc3C=C2C(=O)N1 (stereo not drawn)	< 4.00	5.85	
COCS(=O)(=O)c1ccccc1	< 3.15	< 3.15	
O=C(CN1CCCCC1)CC(O)(C(F)(F)F)C(F)(F)F	< 3.70	4.18	
C1=NN2C(c3ccccc3)=NOC2C2C(c3ccccc3)=NOC12 (stereo not drawn)	< 3.70	< 3.70	
COc1ccc(OC2(c3cc(OC)ccc3OC)OC(=O)c3ccccc32)cc1 (stereo not drawn)	< 4.88	< 4.88	
CCOC(=O)C1(C/C=C/CCl)CCCC1=O (stereo not drawn)	< 3.70	5.00	
CC1CN=C(NS(=O)(=O)c2cc(C(=O)Nc3ccc(Cl)cc3)c(Cl)cc2S)NN1 (stereo not drawn)	< 3.70	4.83	
COc1ccc2[nH]c3c4c(c5cc(C(C)(C)C)ccc5c3c2c1)C(=O)N(c1ccccc1)C4=O			inactive
NC(=O)C(N)CC12CC3CC(CC(C3)C1)C2 (stereo not drawn)	< 3.70	4.40	
Nc1nc(N)c(-c2ccccc2)c(C(=O)Nc2nccs2)n1	< 4.64	< 4.64	
COc1ccc(-c2c3c(n(C4OC(CO)C(O)C(O)C4O)c(=S)c2C#N)CCC3)cc1 (stereo not drawn)	< 3.70	4.36	
COc1ccc(C(Cc2ccccc2)C2NC(=S)NC2=O)cc1 (stereo not drawn)	< 3.70	4.23	
COc1ccc(-n2c(=O)c3[nH]c(=S)[nH]c3n(-c3ccc(OC)cc3)c2=S)cc1	< 3.70	< 3.70	
CCOP(=S)(OCC)OC(=O)C(C)SSC (stereo not drawn) (tested in a mixture with another compound)	< 3.70	4.02	
O=C(O)C1=C(C(=O)O)N(c2ccncc2)C(c2ccco2)=CC1c1ccccc1[N+](=O)[O-] (stereo not drawn)	< 3.70	5.65	
COC(=O)C1(C(=O)OC)C/C(C)=C(/C)SCCCS1	< 3.70	< 3.70	

Compound	pEC50	pIC50	outcome
CCOC(=O)/C(=C/c1ccc(OC)cc1)N(CC)CC	< 3.33	3.58	
Oc1c(Br)cc(Br)cc1/C=C/NC(=S)NC1CC2CC1C1C=CCC21 (stereo not drawn)	< 3.70	5.52	
Cc1cccc2nc3nc(Cl)c(Cl)nc3n12	< 3.70	3.89	
COC1C(OC(=O)/C=C/C=C/C=C/C=C/C(=O)O)CCC2(CO2)C1C1(C)OC1CC=C(C)C (stereo not drawn)	< 6.70	6.75	
CN(C)C1=c2c(=O)n(C)c(=O)n(C)c2=NC2C=CC=CN12 (stereo not drawn)	< 3.76	< 3.76	
CC1=CCC2CC1C(C(=O)c1c[nH]c3ccccc13)=NC2(C)C (stereo not drawn)	< 4.09	< 4.09	
Cc1ccc(S(=O)(=O)SS(=O)(=O)c2ccc(C)cc2)cc1	4.86	4.28	
CN(C)c1ccc(C(C#N)NNC(=O)Cc2ccccc2)cc1 (stereo not drawn)	< 4.07	< 4.07	
O=C(CCc1n[nH]c(=S)o1)Nc1cc(Cl)ccc1Cl	< 3.95	< 3.95	
C=CO/N=[N+](\[O-])N(CC)CC	< 3.70	< 3.70	
COc1c2cc([N+](=O)[O-])cc1CNC(=O)CN1CCOCCOCCN(CCOCCOCC1)CC(=O)NC2	< 4.00	< 4.00	
CCCCc1ccc(C#CC#Cc2ccc(CCCC)s2)s1	< 3.70	< 3.70	
N#C/C(=C\n1c(=S)[nH]c2ccc([N+](=O)[O-])cc21)C(=O)c1ccc2ccccc2c1	< 3.70	< 3.70	
O=C(Nc1nc2ncn(CCI)c2c(=O)[nH]1)c1ccccc1	< 4.20	< 4.20	
c1ccc(OP2(Oc3ccccc3)=NP(Oc3ccccc3)(Oc3ccccc3)=NP(Oc3ccccc3)(Oc3ccccc3)=NP(Oc3ccccc3)(Oc3ccccc3)=N2)cc1	< 4.00	< 4.00	
Oc1ccc2ccccc2c1CNCc1c(O)ccc2ccccc12	< 4.66	< 4.66	
C/C(=N/OC(=O)N(C)C)c1cccs1	< 3.70	< 3.70	
O=c1onc(-c2ccccc2)c2ccccc12	< 3.79	< 3.79	
O=C(O)CCC(=O)c1ccc2oc3ccccc3c2c1	< 3.70	< 3.70	
Cc1ccc(/C=C2\CNC/C(=C\c3ccc(C)cc3)C2=O)cc1	< 5.40	< 5.40	
CC(NC(=O)C(Cc1ccccc1)NC(=O)C(Cc1ccccc1)NC(=O)OC(C)(C)C)C(=O)OCc1ccccc1 (stereo not drawn) (Boc-Phe-Phe-Ala-OBn; configuration not given here)	< 3.70	4.22	
